Reference: PMC8338929, “Acetylation turns leucine into a drug by membrane transporter switching” (Scientific Reports, 2021)
pIC50: −log10 of the molar value.

Target: T1, human PepT1 (SLC15A1) (Homo sapiens, UniProt P46059)
T1 construct: host or cells: MDCK-II
T1 sequence (P46059 1-708): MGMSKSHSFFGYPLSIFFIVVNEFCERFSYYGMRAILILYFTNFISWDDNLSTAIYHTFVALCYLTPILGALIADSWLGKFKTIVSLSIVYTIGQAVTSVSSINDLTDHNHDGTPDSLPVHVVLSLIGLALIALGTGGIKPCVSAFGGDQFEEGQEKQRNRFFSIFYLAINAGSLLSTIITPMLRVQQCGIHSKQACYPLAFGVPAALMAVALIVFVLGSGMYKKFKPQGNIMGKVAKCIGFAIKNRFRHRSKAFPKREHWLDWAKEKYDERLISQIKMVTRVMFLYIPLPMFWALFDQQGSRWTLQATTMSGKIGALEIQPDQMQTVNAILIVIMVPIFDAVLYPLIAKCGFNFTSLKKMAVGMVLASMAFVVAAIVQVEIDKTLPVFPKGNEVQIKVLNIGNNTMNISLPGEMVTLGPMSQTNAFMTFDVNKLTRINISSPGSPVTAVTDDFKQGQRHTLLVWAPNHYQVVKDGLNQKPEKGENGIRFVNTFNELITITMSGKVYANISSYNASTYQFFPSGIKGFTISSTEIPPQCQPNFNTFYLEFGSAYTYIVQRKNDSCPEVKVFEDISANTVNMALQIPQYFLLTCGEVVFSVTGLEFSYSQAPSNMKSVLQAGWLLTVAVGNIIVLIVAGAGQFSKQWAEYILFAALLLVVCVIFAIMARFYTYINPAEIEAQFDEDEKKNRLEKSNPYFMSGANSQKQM
Experiment: Inhibition of PepT1 uptake of probe substrate Gly-Sar in MDCK-II cells
Assay type: cell-based
Conditions: probe Gly-Sar 50 µM; positive control losartan 200 µM; pH 5.5
Description: Transport studies with human PepT1 (SLC15A1), LAT1 (SLC7A5) and MCT1 (SLC16A1) were conducted in MDCK-II cells expressing the human transporter or control cells expressing a vector with Green Fluorescence Protein. Cells were transfected using a proprietary, transient transfection system (OPTI-EXPRESSION Technology, BioIVT). The results from the control cells were used to correct for substrate permeation by routes other than the transporter being investigated in the study. […] Specifically, Net Transporter Mediated Substrate Uptake (pmol/min/cm^2) = (Cellular accumulation in the presence of the transporter) − (Mean cellular accumulation in the absence of the transporter). MDCK-II cells were maintained in DMEM with low glucose and 10% FBS. Cells were used at passages up to 40 were seeded at 60,000 ± 10,000 cells/well on 96-well plates approximately 24 h before transfection, and transport assays were performed approximately 48 h after transfection. […]
Transport studies with PepT1 were conducted in 96-well cell culture plate with wells containing a monolayer of MDCK-II cells grown on a permeable support and a corresponding 96-well receiver tray. […] Then a 30-µL sample was taken and mixed with 200 µL of scintillation fluid and scintillation counted (1450 Microbeta, Perkin-Elmer). […]

pIC50: 3.13
Compound: CC(=O)N[C@@H](CC(C)C)C(=O)O [N-acetyl-L-leucine]
